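Step 1: Grow cells in 96-well plates. Step 2: Expose to compound for 48 hours at 5 concentrations. Step 3: Interpolate endpoints linearly; if unreached, use highest concentration. The concentration for 50% growth inhibition is given as GI50.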 Calls of active or inactive are those of the source. Rule as the data show it: active = GI50 up to about 1.1 µM and inactive = higher.
How the values were obtained:
Test in all cases: NCI-60 cell line screen, 48 h
A498 = system: A498
UACC-62 = system: UACC-62
U-251 = system: U-251
SK-MEL-28 = system: SK-MEL-28
MOLT-4 = system: MOLT-4
HOP-62 = system: HOP-62
NCI-H226 = system: NCI-H226
SF-295 = system: SF-295
A549 = system: A549
CCRF-CEM = system: CCRF-CEM
SK-OV-3 = system: SK-OV-3
TK-10 = system: TK-10
CAKI-1 = system: CAKI-1
M14 = system: M14
HOP-92 = system: HOP-92
NCI-H23 = system: NCI-H23
DU-145 = system: DU-145
Hs-578T = system: Hs-578T
OVCAR-3 = system: OVCAR-3

Row | Structure (SMILES) | GI50 (A498) | GI50 (UACC-62) | GI50 (U-251) | GI50 (SK-MEL-28) | GI50 (MOLT-4) | GI50 (HOP-62) | GI50 (NCI-H226) | GI50 (SF-295) | GI50 (A549) | GI50 (CCRF-CEM) | GI50 (SK-OV-3) | GI50 (TK-10) | GI50 (CAKI-1) | GI50 (M14) | GI50 (HOP-92) | GI50 (NCI-H23) | GI50 (DU-145) | GI50 (Hs-578T) | GI50 (OVCAR-3)
1 | CC1(n2nc(-c3ccccc3)n(-c3ccccc3)c2=O)CSC1 | 38.2 µM (inactive) | > 100 µM (inactive) | > 100 µM (inactive) | > 100 µM (inactive) | > 100 µM (inactive) | > 100 µM (inactive) | > 100 µM (inactive) | > 100 µM (inactive) | > 100 µM (inactive) | > 100 µM (inactive) | > 100 µM (inactive) | > 100 µM (inactive) | > 100 µM (inactive) | > 100 µM (inactive) | > 100 µM (inactive) | > 100 µM (inactive) | – | – | –
2 | C1CSCC2(COC2)CS1 | > 100 µM (inactive) | – | > 100 µM (inactive) | > 100 µM (inactive) | > 100 µM (inactive) | – | > 100 µM (inactive) | > 100 µM (inactive) | > 100 µM (inactive) | > 100 µM (inactive) | > 100 µM (inactive) | > 100 µM (inactive) | – | – | > 100 µM (inactive) | > 100 µM (inactive) | > 100 µM (inactive) | > 100 µM (inactive) | –
3 | CS/C(=N\c1ccccc1)N(c1ccccc1)c1nc(=[N+](C)C)ss1.[O-][Cl+3]([O-])([O-])[O-] | 12.4 µM (inactive) | 0.0441 µM (active) | 2.34 µM (inactive) | 1.14 µM (inactive) | 1.5 µM (inactive) | 13.9 µM (inactive) | 10 µM (inactive) | 12.5 µM (inactive) | 14.5 µM (inactive) | 0.508 µM (active) | 23.9 µM (inactive) | 14.5 µM (inactive) | 3.48 µM (inactive) | 1.13 µM (inactive) | 2.79 µM (inactive) | 4.48 µM (inactive) | – | – | 1.66 µM (inactive)
4 | CCOC(=O)[C@H]1Nc2ccc(Cl)cc2[C@H]2OCC[C@@H]12 | > 100 µM (inactive) | > 100 µM (inactive) | > 100 µM (inactive) | > 100 µM (inactive) | > 100 µM (inactive) | > 100 µM (inactive) | > 100 µM (inactive) | > 100 µM (inactive) | > 100 µM (inactive) | > 100 µM (inactive) | > 100 µM (inactive) | > 100 µM (inactive) | > 100 µM (inactive) | > 100 µM (inactive) | – | > 100 µM (inactive) | – | – | > 100 µM (inactive)
5 | O=CC1CCCc2ccccc21 (stereo unspecified) | > 100 µM (inactive) | > 100 µM (inactive) | > 41.5 µM (inactive) | > 100 µM (inactive) | > 100 µM (inactive) | > 100 µM (inactive) | > 100 µM (inactive) | > 100 µM (inactive) | > 100 µM (inactive) | > 49.7 µM (inactive) | > 100 µM (inactive) | > 100 µM (inactive) | > 100 µM (inactive) | > 100 µM (inactive) | > 100 µM (inactive) | > 100 µM (inactive) | – | – | > 100 µM (inactive)
6 | O=C1CCC(=O)c2cc(Br)ccc2N1 | > 100 µM (inactive) | > 100 µM (inactive) | 99.3 µM (inactive) | > 100 µM (inactive) | > 100 µM (inactive) | > 100 µM (inactive) | > 100 µM (inactive) | > 100 µM (inactive) | 98.6 µM (inactive) | > 68.9 µM (inactive) | > 100 µM (inactive) | > 100 µM (inactive) | > 100 µM (inactive) | > 100 µM (inactive) | > 100 µM (inactive) | > 100 µM (inactive) | – | – | > 100 µM (inactive)
7 | O=P(Nc1cccc(Cl)c1)(Oc1ccccc1)N(CCCl)CCCl (stereo unspecified) | 14.4 µM (inactive) | 11.6 µM (inactive) | 14.6 µM (inactive) | 16.6 µM (inactive) | 17.4 µM (inactive) | 16.6 µM (inactive) | 15 µM (inactive) | 14.5 µM (inactive) | 13.2 µM (inactive) | > 100 µM (inactive) | > 100 µM (inactive) | 13.7 µM (inactive) | 13.9 µM (inactive) | 15.2 µM (inactive) | 11.9 µM (inactive) | 16.5 µM (inactive) | – | – | 14.2 µM (inactive)
8 | COc1ccc(C2C(Cl)C(=O)N2NC(=O)c2ccc(N)cc2)cc1 (stereo unspecified) | > 100 µM (inactive) | > 100 µM (inactive) | > 100 µM (inactive) | > 100 µM (inactive) | > 100 µM (inactive) | > 100 µM (inactive) | > 100 µM (inactive) | > 100 µM (inactive) | > 100 µM (inactive) | 93.5 µM (inactive) | > 100 µM (inactive) | > 100 µM (inactive) | > 100 µM (inactive) | > 100 µM (inactive) | > 100 µM (inactive) | > 100 µM (inactive) | – | – | > 100 µM (inactive)
